Broadly, the AC50 is the concentration at which the activity in the assay is half-maximal. For orientation: IC50 means the concentration that inhibits the measured activity by half. For orientation: CC50 means the concentration at which the toxic effect on the cells reaches its halfway point.

Seven compounds from ChEMBL document CHEMBL1201862, “PubChem BioAssay data set” (2004) can be followed below.

The nature of experiment [1]: HepG2 cell cytotoxicity, dose response, cytotoxicity control, luminescence plate reader, powder samples, set 2 (AID 651860). Type of experiment: functional, cell-based.
A further experiment deals with Transthyretin (Homo sapiens, UniProt P02766). The experiment is described as follows: Luminescence-based cell-based high throughput dose response assay to identify activators of Transthyretin (TTR) transcription. Format: functional.
For the next experiment, the system named is HEK293. The experiment is described as follows: inhibitors of LMP1-driven NF-kB reporter, dose response, cell-based, HEK293, luciferase, cherry-pick (AID 588343). Format: functional, Homo sapiens. The note with it: Homo sapiens, HEK293.
A short description of a further experiment: cells. The note with it: HEK293.
Experiment [2] can be described thus: A549 cell cytotoxicity, dose response, cytotoxicity control, plate reader, dry powder, set 6 (AID 743312). Format: functional, cell-based.
For the next experiment, the target named is Vasopressin V2 receptor (Homo sapiens, UniProt P30518). The experiment is described as follows: Late-stage results from the probe development effort to identify antagonists of arginine vasopressin receptor 1a (AVPR1a): fluorescence-based cell-based dose response AVPR2 inhibition counterscreen assay. Format: functional. A general note: A counterscreen serves to expose hits that act by an unwanted route or on another target.
Vasopressin V2 receptor, sequence (P30518 whole entry): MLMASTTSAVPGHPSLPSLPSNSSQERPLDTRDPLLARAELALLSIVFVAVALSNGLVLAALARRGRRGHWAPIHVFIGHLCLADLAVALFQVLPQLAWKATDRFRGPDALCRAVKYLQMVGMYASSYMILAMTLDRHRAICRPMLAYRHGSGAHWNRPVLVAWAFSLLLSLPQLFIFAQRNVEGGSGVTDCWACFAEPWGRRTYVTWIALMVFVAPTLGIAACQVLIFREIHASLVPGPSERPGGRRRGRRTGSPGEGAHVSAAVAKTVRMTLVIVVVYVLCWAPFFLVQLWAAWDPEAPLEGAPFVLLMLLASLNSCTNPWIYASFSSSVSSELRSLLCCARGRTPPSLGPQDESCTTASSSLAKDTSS

A further experiment concerns the target Vasopressin V1b receptor (Homo sapiens, UniProt P47901). The experiment is described as follows: Late-stage results from the probe development effort to identify antagonists of arginine vasopressin receptor 1a (AVPR1a): fluorescence-based cell-based dose response AVPR1b inhibition counterscreen assay. Format: functional.
Experiment [3] can be described thus: Late-stage results from the probe development effort to identify antagonists of arginine vasopressin receptor 1a (AVPR1a): fluorescence-based cell-based dose response OXTR inhibition counterscreen assay. Format: functional.
The nature of experiment [4]: Late-stage results from the probe development effort to identify antagonists of arginine vasopressin receptor 1a (AVPR1a): fluorescence-based cell-based dose response AVPR1a inhibition assay. Type of experiment: functional.
In experiment [5] the target is T1, Oxysterols receptor LXR-beta (Homo sapiens, UniProt P55055).
T1 sequence (P55055 whole entry): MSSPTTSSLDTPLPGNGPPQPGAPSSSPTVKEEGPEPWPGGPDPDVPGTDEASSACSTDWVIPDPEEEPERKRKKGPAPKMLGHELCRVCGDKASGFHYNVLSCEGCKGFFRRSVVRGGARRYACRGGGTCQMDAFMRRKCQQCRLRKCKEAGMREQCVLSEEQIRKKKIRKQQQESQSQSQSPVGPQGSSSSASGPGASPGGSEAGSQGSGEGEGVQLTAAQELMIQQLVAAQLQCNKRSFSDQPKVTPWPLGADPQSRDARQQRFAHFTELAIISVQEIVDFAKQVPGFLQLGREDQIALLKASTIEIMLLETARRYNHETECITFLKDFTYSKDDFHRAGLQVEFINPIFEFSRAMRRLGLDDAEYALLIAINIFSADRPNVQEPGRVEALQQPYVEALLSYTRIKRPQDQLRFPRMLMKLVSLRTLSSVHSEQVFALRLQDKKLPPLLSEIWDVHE
As to the kind of experiment: LXR agonists, Gal4 luciferase reporter, dose response, counter-screen for ssDAF-12 agonist project, cell-based, luminescence, HEK293, S. stercoralis campaign (AID 720737). Type of experiment: functional. The note with it: read-out: IC50 (the source's name). On the technique in general: Reporter assays use an easily measured gene product as a stand-in for the process of interest.

Experiment [6] can be described thus: Luminescence-based cell-based high throughput dose response assay to identify activators of the DAF-12 from the parasite S. stercoralis (ssDAF-12). Format: functional.
Experiment [7] in a line: THP-1 cell cytotoxicity, dose response, cytotoxicity control for Vif-APOBEC3G degradation inhibitor project, THP-1 cells (AID 1117359). Format: functional. As to conditions: Human immunodeficiency virus 1, THP-1.
For experiment [8], the target named is T2, COUP transcription factor 2 (Homo sapiens, UniProt P24468).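 Note: HEK293 cells transiently cotransfected with COUP-TFII expression vector and reporter; luciferase reporter luminescence driven by COUP-TFII from the pX2-168 reporter plasmid.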
T2 sequence (P24468 whole entry): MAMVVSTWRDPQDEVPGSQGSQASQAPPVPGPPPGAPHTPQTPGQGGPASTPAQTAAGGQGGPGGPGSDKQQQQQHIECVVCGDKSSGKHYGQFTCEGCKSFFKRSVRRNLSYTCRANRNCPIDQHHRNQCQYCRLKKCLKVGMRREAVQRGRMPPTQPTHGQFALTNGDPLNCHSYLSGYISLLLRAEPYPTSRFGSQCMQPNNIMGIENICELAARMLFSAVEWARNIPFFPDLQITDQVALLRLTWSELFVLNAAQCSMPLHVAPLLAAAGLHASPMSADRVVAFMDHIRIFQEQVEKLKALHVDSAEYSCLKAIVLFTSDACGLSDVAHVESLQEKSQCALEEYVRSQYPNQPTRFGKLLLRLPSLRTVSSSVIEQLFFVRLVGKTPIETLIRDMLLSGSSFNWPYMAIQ
The experiment is described as follows: Luminescence-based cell-based high throughput dose response assay to identify inhibitors of COUP-TFII (NR2F2). Format: functional.

In a further experiment the test system is INS1. As to the kind of experiment: beta cell apoptosis inhibitors, cytokine rescue, dose response, luminescence, retest (AID 449756).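 Note: cell death triggered by IL-1 beta plus TNF-alpha plus IFN-gamma mixture; protective hits raise ATP signal compared with cytokine alone wells.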 Type of experiment: functional, cell-based. The note with it: Rattus norvegicus.
The target of experiment [9] is Glutathione-S-transferase (Schistosoma japonicum, UniProt Q26513). As to the kind of experiment: biotin-GST/anti-GST TR-FRET signal inhibitors, dose response, artefact control for Vif-APOBEC3G degradation inhibitor project, biochemical (AID 1117362). Type of experiment: functional. (In general: TR-FRET usually uses a lanthanide donor and a delayed reading to cut background.)
Glutathione-S-transferase, sequence (Q26513 whole entry): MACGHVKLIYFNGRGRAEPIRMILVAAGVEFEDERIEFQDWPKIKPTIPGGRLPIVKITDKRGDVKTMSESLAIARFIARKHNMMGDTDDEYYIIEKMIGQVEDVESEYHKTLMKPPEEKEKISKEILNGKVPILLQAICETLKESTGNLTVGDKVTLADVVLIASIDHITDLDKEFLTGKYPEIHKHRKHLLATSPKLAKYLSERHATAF

Experiment [10] is described as follows: NIH:OVCAR-3 ovarian cancer cell cytotoxicity, dose response, PAX8 inhibitor project, plate reader, dry powder samples (AID 743044). Format: functional, cell-based.
Experiment [11] can be described thus: cytotoxicity in OVCAR8 ovarian cancer cells, dose response, PAX8 project, cell-based, plate reader, dry powder samples (AID 743197). Type of experiment: functional. The note with it: OVCAR-8.
The target of another experiment is Paired box protein Pax-8 (Homo sapiens, UniProt Q06710). The experiment is described as follows: inhibitors of PAX8-driven TPO luciferase reporter, dose response, RMG-I cells, cherry-pick (AID 687027).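 Note: luciferase reporter driven by Pax8 target thyroperoxidase promoter measured by SteadyGlo luminescence.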 Type of experiment: functional, cell-based.
Paired box protein Pax-8, sequence (Q06710 whole entry): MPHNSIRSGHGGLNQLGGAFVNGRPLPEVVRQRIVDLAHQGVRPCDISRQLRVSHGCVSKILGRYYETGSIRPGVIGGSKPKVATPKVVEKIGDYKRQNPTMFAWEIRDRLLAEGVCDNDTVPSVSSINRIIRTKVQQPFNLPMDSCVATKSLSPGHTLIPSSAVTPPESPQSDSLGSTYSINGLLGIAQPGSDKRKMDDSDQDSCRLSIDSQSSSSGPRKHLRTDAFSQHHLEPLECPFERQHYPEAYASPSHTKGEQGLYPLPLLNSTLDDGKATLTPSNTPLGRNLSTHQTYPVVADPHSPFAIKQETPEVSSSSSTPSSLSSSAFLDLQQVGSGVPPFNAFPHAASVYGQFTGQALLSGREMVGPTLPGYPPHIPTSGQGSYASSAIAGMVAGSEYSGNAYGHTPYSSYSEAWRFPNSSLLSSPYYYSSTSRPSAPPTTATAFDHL
Experiment [12] can be described thus: IOSE-T80 ovarian epithelial cell cytotoxicity, dose response, cytotoxicity control for PAX8 inhibitor project, plate reader, dry powder samples (AID 743045). Format: functional, cell-based.
Experiment [13] can be described thus: non-specific cell cytotoxicity, dose response, cytotoxicity control for PAX8 inhibitor project, plate reader, dry powder samples (AID 743021). Type of experiment: functional, cell-based.

Activity calls are given as the source filed them. Bounds are passed on as bounds.

Vasopressin V1b receptor, sequence (P47901 whole entry): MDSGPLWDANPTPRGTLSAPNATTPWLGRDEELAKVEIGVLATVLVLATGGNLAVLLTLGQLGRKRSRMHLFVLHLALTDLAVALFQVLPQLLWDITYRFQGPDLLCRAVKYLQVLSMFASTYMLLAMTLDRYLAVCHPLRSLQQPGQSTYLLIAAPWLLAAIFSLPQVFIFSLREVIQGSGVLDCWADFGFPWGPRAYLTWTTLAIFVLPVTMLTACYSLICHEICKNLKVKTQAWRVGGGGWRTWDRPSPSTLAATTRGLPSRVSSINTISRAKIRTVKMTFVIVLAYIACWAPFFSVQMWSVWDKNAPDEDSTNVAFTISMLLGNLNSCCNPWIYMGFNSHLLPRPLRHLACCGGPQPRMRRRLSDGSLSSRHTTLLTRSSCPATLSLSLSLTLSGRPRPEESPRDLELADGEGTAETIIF

In the case of `Cc1cc(C)c(S(=O)(=O)Nc2cc(C(C(=O)OC(C)C)C(=O)C(F)(F)F)c(O)c3ccccc23)c(C)c1` (stereo not given), in experiment [1], the AC50 is > 52 µM (inactive).

As to `COc1ccc2cc3c(N)nn(C(=O)c4ccccc4[N+](=O)[O-])c3nc2c1`, the EC50 on Transthyretin was > 167 µM (inactive). In addition, the AC50 in the experiment on HEK293 is 2.75 µM (active).

`Cc1ccc(C(C)C)c(OCCn2c(=O)[nH]c3ccccc32)c1`: the AC50 in the experiment “cells” was 32.4 µM (active); in experiment [2], 23.1 µM (active).

With `Cc1ccccc1N1CCN(C(=O)N(CC2CC2)c2ccc(Cl)cc2)CC1`, the 50% inhibitory concentration (IC50) on Vasopressin V2 receptor is 1.02 µM (active); at Vasopressin V1b receptor it was 12.8 µM (inactive); in experiment [3], 0.046 µM (active); in experiment [4], 0.0027 µM (active).

With `O=C(CCN1C(=O)C2C3CCC(C3)C2C1=O)Nc1ccccc1C(F)(F)F` (stereo not given), the EC50 in experiment [5] is > 67.6 µM (inactive). In addition, the IC50 in [6] is > 67.6 µM (inactive).

`Cc1cccc2cc(-c3ccccc3)c(-c3ccccc3)c[n+]12`: in experiment [7], the CC50 was 12.2 µM (active). Moreover, the IC50 in [8] was 8.22 µM (active); in [9], 18.7 µM (active). In addition, the concentration at half-maximal activity (AC50) with INS1 is 4.26 µM (active).

As for `COc1ccccc1C#Cc1ccc([C@H]2[C@H](C#N)N(C(=O)C3CCC3)[C@H]2CO)cc1`, the AC50 in [10] is 12.6 µM (active); in [11], 23.4 µM (active); at Paired box protein Pax-8, 5.55 µM (active); in experiment [12], 56.5 µM (active); in experiment [13] it was 32.8 µM (active).
